The values below come from US9096615B2, “Bridged bicyclic amino thiazine dioxide compounds as inhibitors of beta-secretase and methods of use thereof” (AMGEN INC., priority 2013, dated 2015).

The structures appear in SMILES notation. Where two headings read alike, the source gives them in different places.

One experiment addresses BACE1 (Homo sapiens, UniProt P56817). As to the kind of experiment: In vitro enzymatic BACE FRET assay. The experiment is classed as biochemical. Here is the method: In Vitro Enzymatic BACE FRET (Fluorescence Resonance Energy Transfer) Assay
Enzyme Assay Data in the Example Table I
The assay buffer used in this screen is 0.05 M acetate, pH 4.2, 10% DMSO final, 100 uM genapol (which is a nonionic detergent, below its Critical Micelle Concentration). The Beta Secretase enzyme (0.2 nM) is pre-incubated for one hour with inhibitors, typically in about 1 uL of DMSO according to a serial dilution, are added thereto. This assay is effectively started by the addition of FRET substrate (50 nM) and the combination is incubated for one hour. The FRET assay is terminated with by addition of Tris buffer, which raises the pH to neutrality, and the fluorescence is determined. The FRET substrate is a peptide with commercially available fluorophore and quencher, on opposite sides of the BACE cleavage site. Proteolytic cleavage of the FRET substrate releases quenching of fluorescence (excitation 488 nm and […]).

The next experiment concerns the target T1, Cathepsin D (Cat D) (Homo sapiens, UniProt P07339).
T1 construct: made in house; host or cells: CHO cells
Nature of the experiment: In vitro enzymatic Cathepsin D (Cat D) FRET assay. The following applies: read-out: CatD IC50. The experiment is classed as biochemical. As for the experimental part: In Vitro Enzymatic Cathepsin D (Cat D) FRET (Fluorescence Resonance Energy Transfer) Assay
Recombinant Cat D was expressed in CHO cells. The assay buffer for CathepsinD is 0.05 M citrate pH 3.5, 10% DMSO final, 5 mM CHAPS. The Cat D enzyme (9 nM) is pre-incubated for one hour with inhibitors, typically in about 1 uL of DMSO according to a serial dilution, is added thereto. The assays are effectively started by the addition of different FRET substrates (20 nM for Cat D) and the combination is incubated for one hour. The FRET assay is terminated with by addition of Tris buffer, which raises the pH to neutrality, and the fluorescence is determined. The FRET substrate is a peptide with commercially available fluorophore and quencher, on opposite sides of the BACE cleavage site. The Cat D substrate peptide sequence is based on sequence #1 of Table 1 from Gulnik et al. FEBS Letters v413 p 379-384 1997. Proteolytic cleavage of the FRET substrate releases quenching of fluorescence (Cat D excitation 500 nm and emission 580 nm). […]
Where available, the in-vitro Cat D FRET assay data for each of the Examples, conducted by the first procedure, is provided in Tables 1 and 3. For example, the compound of example 28 has a Cat D IC50 value of >400 uM.

Experiment [1] concerns Aβ40 in conditioned medium of cells stably expressing Amyloid Precursor Protein (APP). As to the kind of experiment: In vitro BACE cell-based assay (HEK cell assay, Aβ40 sandwich ELISA). The note with it: Homo sapiens, HEK293. As for the experimental part: In Vitro BACE Cell-Based Assay
The cell-based assay measures inhibition or reduction of Aβ40 in conditioned medium of test compound treated cells expressing amyloid precursor protein.
Cells stably expressing Amyloid Precursor Protein (APP) were plated at a density of 40K cells/well in 96 well plates (Costar). The cells were cultivated for 24 hours at 37° C. and 5% CO2 in DMEM supplemented with 10% FBS. The test compounds were then added to cells in 10-point dose response concentrations with the starting concentration being either 100 μM or 10 μM. The compounds were diluted from stock solutions in DMSO and the final DMSO concentration of the test compounds on cells was 0.1%. After 24 h of incubation with the test compounds the supernatant conditioned media was collected and the Aβ 40 levels were determined using a sandwich ELISA. The IC50 of the compound was calculated from the percent of control or percent inhibition of Aβ 40 as a function of the concentration of the test compound.
The sandwich ELISA to detect Aβ 40 was performed in 96 well microtiter plates, which were pre-treated with goat anti-rabbit IgG (Pierce). The capture and detecting antibody pair that were used to detect Aβ 40 from cell supernatants were affinity purified pAb40 (Biosource) and biotinylated 6E10 (Signet Labs Inc.), respectively. The optimal concentration for the pAb40 antibody was 3 μg/ml in Superblock/TBS (Pierce) that was supplemented with 0.05% Tween 20 (Sigma). Optimal concentration for the detection antibody 6E10-biotinylated was 0.5 μg/ml in Superblock/TBS (Pierce) that had been supplemented with 2% normal goat serum and 2% normal mouse serum.
Cellular supernatants were incubated with the capture antibody for 3 h at 4° C., followed by 3 wash steps in TBS-tween (0.05%). The detecting antibody incubation was for 2 h at 4° C., again followed by the wash steps as described previously. The final readout of the ELISA is Time-Resolved Fluorescence (counts per minute) using Delfia reagents Streptavidin-Europium and Enhancement solutions (Perkin Elmer) and the Victor 2 multilabel counter (Perkin Elmer).

The mark [2] stands for this setting: read-out: BACE1 FRET assay IC50.
The mark [3] stands for this setting: Aβ40, 24 h incubation, read-out: HEK cell assay IC50.
Where [4] appears, read: average IC50, read-out: BACE1 Enzyme assay IC50.
Where [5] appears, read: average IC50, read-out: BACE1 cell assay IC50.

T1 sequence (P07339 65-412, species assumed): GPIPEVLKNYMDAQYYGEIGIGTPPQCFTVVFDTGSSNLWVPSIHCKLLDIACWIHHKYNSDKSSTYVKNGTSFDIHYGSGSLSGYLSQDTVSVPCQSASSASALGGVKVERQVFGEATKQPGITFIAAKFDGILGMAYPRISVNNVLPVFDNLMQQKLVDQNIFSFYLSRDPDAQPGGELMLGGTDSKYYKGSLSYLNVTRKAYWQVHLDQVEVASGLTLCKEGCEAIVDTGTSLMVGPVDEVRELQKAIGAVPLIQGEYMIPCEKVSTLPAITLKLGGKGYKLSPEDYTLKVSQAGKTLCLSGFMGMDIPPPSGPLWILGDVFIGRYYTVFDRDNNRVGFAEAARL
BACE1, sequence (P56817 46-501, species assumed): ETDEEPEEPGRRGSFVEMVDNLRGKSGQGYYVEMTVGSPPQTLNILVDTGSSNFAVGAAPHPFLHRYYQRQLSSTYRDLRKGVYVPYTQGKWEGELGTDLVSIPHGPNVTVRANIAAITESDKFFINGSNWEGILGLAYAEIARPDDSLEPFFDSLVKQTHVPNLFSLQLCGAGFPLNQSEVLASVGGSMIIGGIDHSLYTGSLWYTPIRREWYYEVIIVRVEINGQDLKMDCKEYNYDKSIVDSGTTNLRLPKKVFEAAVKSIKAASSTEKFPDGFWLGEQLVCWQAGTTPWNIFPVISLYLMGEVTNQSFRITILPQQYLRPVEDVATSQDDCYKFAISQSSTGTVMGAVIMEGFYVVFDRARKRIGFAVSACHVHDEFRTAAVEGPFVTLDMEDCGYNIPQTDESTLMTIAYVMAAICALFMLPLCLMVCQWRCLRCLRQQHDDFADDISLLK

Regarding `Cc1cc(Cl)cnc1C(=O)Nc1ccc(F)c([C@@]2(C)N=C(N)[C@]3(C)CCC[C@@]2(C)S3(=O)=O)c1` [Example 12, N-(3-((1R,2R,5S)-4-Amino-1,2,5-trimethyl-9,9-dioxido-9-thia-3-azabicyclo[3.3.1]non-3-en-2-yl)-4-fluorophenyl)-5-chloro-3-methylpicolinamide], the IC50 amounted to 0.005 µM on BACE1 (setting [2]), 29.7 µM at Cathepsin D (Cat D) and 0.033 µM in experiment [1] (setting [3]).

Consider `C[C@]12CC[C@H]([C@@](C)(c3cc(Nc4ncnc5cc(Cl)cnc45)ccc3F)N=C1N)S2(=O)=O` [Example 131, N-(3-((1R,2R,5S)-4-amino-2,5-dimethyl-8,8-dioxido-8-thia-3-azabicyclo[3.2.1]oct-3-en-2-yl)-4-fluorophenyl)-7-chloropyrido[3,2-d]pyrimidin-4-amine], for which the IC50 was 0.029 µM on BACE1 (setting [4]); 482 µM at Cathepsin D (Cat D) (average IC50, first procedure); 0.018 µM in experiment [1] (setting [5]).

Consider `Cc1cc(Cl)cnc1C(=O)Nc1ccc(F)c([C@@]2(C)N=C(N)[C@@]3(C)CCC[C@@H]2S3(=O)=O)c1` [Example 3, N-(3-((1S,2R,5R)-4-Amino-2,5-dimethyl-9,9-dioxido-9-thia-3-azabicyclo[3.3.1]non-3-en-2-yl)-4-fluorophenyl)-5-chloro-3-methylpicolinamide], for which the IC50 is 0.002 µM at BACE1 (setting [2]), 119 µM at Cathepsin D (Cat D) and 0.007 µM in experiment [1] (setting [3]).

With `C[C@]1(c2cc(NC(=O)c3ncc(C(F)(F)F)cc3Cl)ccc2F)N=C(N)[C@@]2(CF)CC[C@@H]1S2(=O)=O` [Example 108, N-(3-((1S,2R,5R)-4-amino-5-(fluoromethyl)-2-methyl-8,8-dioxido-8-thia-3-azabicyclo[3.2.1]oct-3-en-2-yl)-4-fluorophenyl)-3-chloro-5-(trifluoromethyl)-2-pyridinecarboxamide], the IC50 on BACE1 (setting [4]) was 0.008 µM; on Cathepsin D (Cat D) (average IC50, first procedure), above 400 µM; in experiment [1] (setting [5]) it was 0.007 µM.

Turning to `COc1cnc2c(Nc3ccc(F)c([C@@]4(C)N=C(N)[C@]5(C)CCC[C@H]4S5(=O)=O)c3)nccc2n1` [Example 2, (1S,4R,5R)-2-Amino-4-(2-fluoro-5-((2-methoxypyrido[3,4-b]pyrazin-5-yl)amino)phenyl)-1,4-dimethyl-9-thia-3-azabicyclo[3.3.1]non-2-ene 9,9-dioxide], the IC50 on BACE1 (setting [2]) came to 0.13 µM; at Cathepsin D (Cat D), 166 µM; in experiment [1] (setting [3]) it was 0.055 µM.

`CC#CCOc1cnc(C(=O)Nc2ccc(F)c([C@@]3(C)N=C(N)[C@@]4(CF)CC[C@@H]3S4(=O)=O)c2)cn1` [Example 94, N-(3-((1S,2R,5R)-4-amino-5-(fluoromethyl)-2-methyl-8,8-dioxido-8-thia-3-azabicyclo[3.2.1]oct-3-en-2-yl)-4-fluorophenyl)-5-(2-butyn-1-yloxy)-2-pyrazinecarboxamide]: the IC50 on BACE1 (setting [4]) worked out at 0.0005 µM; at Cathepsin D (Cat D) (average IC50, first procedure), 257 µM; in experiment [1] (setting [5]), 0.0002 µM.

`COc1cnc2c(Nc3ccc(F)c([C@@]4(C)N=C(N)[C@@]5(CF)CC[C@@H]4S5(=O)=O)c3)ncc(F)c2c1` [Example 99, N-(3-((1S,2R,5R)-4-amino-5-(fluoromethyl)-2-methyl-8,8-dioxido-8-thia-3-azabicyclo[3.2.1]oct-3-en-2-yl)-4-fluorophenyl)-5-fluoro-3-methoxy-1,7-naphthyridin-8-amine]: the IC50 at BACE1 (setting [4]) worked out at 0.006 µM; on Cathepsin D (Cat D) (average IC50, first procedure), 317 µM; in experiment [1] (setting [5]), 0.028 µM.

With `CCc1ccc(C(=O)Nc2ccc(F)c([C@@]3(C)N=C(N)[C@@]4(CF)CC[C@@H]3S4(=O)=O)c2)nc1` [Example 101, N-(3-((1S,2R,5R)-4-amino-5-(fluoromethyl)-2-methyl-8,8-dioxido-8-thia-3-azabicyclo[3.2.1]oct-3-en-2-yl)-4-fluorophenyl)-5-ethyl-2-pyridinecarboxamide], the IC50 at BACE1 (setting [4]) amounted to 0.026 µM; on Cathepsin D (Cat D) (average IC50, first procedure), 1850 µM; in experiment [1] (setting [5]) it was 0.012 µM.

Take `Cc1cc(C(F)(F)F)cnc1C(=O)Nc1ccc(F)c([C@@]2(C)N=C(N)[C@]3(C)CC[C@@]2(C)S3(=O)=O)c1` [Example 49, N-(3-((1R,2R,5S)-4-amino-1,2,5-trimethyl-8,8-dioxido-8-thia-3-azabicyclo[3.2.1]oct-3-en-2-yl)-4-fluorophenyl)-3-methyl-5-(trifluoromethyl)-2-pyridinecarboxamide]: the IC50 at BACE1 (setting [4]) worked out at 0.011 µM; at Cathepsin D (Cat D) (average IC50, first procedure) it was 66.6 µM; in experiment [1] (setting [5]) it was 0.004 µM.

For `COc1cnc2c(Nc3ccc(F)c([C@@]4(C)N=C(N)[C@]5(C)CC[C@H]4S5(=O)=O)c3)nccc2n1` [Example 81, N-(3-((1R,2R,5S)-4-amino-2,5-dimethyl-8,8-dioxido-8-thia-3-azabicyclo[3.2.1]oct-3-en-2-yl)-4-fluorophenyl)-2-methoxypyrido[3,4-b]pyrazin-5-amine], the IC50 is 0.225 µM on BACE1 (setting [4]); above 348 µM on Cathepsin D (Cat D) (average IC50, first procedure); 0.062 µM in experiment [1] (setting [5]).

For the compound `Cc1cc(Cl)cnc1C(=O)Nc1ccc(F)c([C@@]2(C)N=C(N)[C@H]3CCC[C@@H]2S3(=O)=O)c1` [Example 20, N-(3-((1S,2R,5R)-4-Amino-2-methyl-9,9-dioxido-9-thia-3-azabicyclo[3.3.1]non-3-en-2-yl)-4-fluorophenyl)-5-chloro-3-methylpicolinamide], the results for the IC50 (on BACE1 (setting [2]); on Cathepsin D (Cat D); in experiment [1] (setting [3])) were 0.003 µM, 717 µM and 0.006 µM, respectively.

Turning to `COc1ccc(C(=O)Nc2ccc(F)c([C@@]3(C)N=C(N)[C@]4(C)CC[C@H]3S4(=O)=O)c2)c(F)c1` [Example 124, N-(3-((1R,2R,5S)-4-amino-2,5-dimethyl-8,8-dioxido-8-thia-3-azabicyclo[3.2.1]oct-3-en-2-yl)-4-fluorophenyl)-2-fluoro-4-methoxybenzamide], the IC50 turned out to be 0.588 µM at BACE1 (setting [4]); 4440 µM on Cathepsin D (Cat D) (average IC50, first procedure); 0.103 µM in experiment [1] (setting [5]).

For the compound `C[C@]12CC[C@H]([C@@](C)(c3cc(NC(=O)c4ccc(C#CC5CC5)cn4)ccc3F)N=C1N)S2(=O)=O` [Example 65, N-(3-((1R,2R,5S)-4-amino-2,5-dimethyl-8,8-dioxido-8-thia-3-azabicyclo[3.2.1]oct-3-en-2-yl)-4-fluorophenyl)-5-(cyclopropylethynyl)-2-pyridinecarboxamide], the IC50 on BACE1 (setting [4]) is 0.007 µM; on Cathepsin D (Cat D) (average IC50, first procedure) it was above 400 µM; in experiment [1] (setting [5]) it was 0.016 µM.

As for `Cc1cc(OC(F)F)cnc1C(=O)Nc1ccc(F)c([C@@]2(C)N=C(N)[C@@H]3CCC[C@H]2S3(=O)=O)c1` [Example 18, N-(3-((1R,2R,5S)-4-Amino-2-methyl-9,9-dioxido-9-thia-3-azabicyclo[3.3.1]non-3-en-2-yl)-4-fluorophenyl)-5-(difluoromethoxy)-3-methylpicolinamide], the IC50 on BACE1 (setting [2]) was 0.043 µM; on Cathepsin D (Cat D) it was 690 µM; in experiment [1] (setting [3]) it was 0.018 µM.
